Assay results as given in PubChem BioAssay (NCI).
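Dose response: 5 concentrations. Exposure: 48 h. Format: 96-well plates. Endpoint: linear interpolation; highest concentration if not reached. TGI: concentration producing complete growth inhibition.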

Experiments:
Assay in all cases: growth of human tumour cells (NCI), 48 h
[1] = system: SW-620 colon
[2] = system: HS 578T breast
[3] = system: OVCAR-3 ovarian
[4] = system: OVCAR-4 ovarian
[5] = system: LOX IMVI melanoma
[6] = system: SNB-19 CNS
[7] = system: 786-0 renal
[8] = system: K-562 leukemia
[9] = system: UACC-62 melanoma
[10] = system: SK-MEL-2 melanoma
[11] = system: T-47D breast
[12] = system: MDA-N
[13] = system: SN12C renal
[14] = system: SK-OV-3 ovarian
[15] = system: MOLT-4 leukemia
[16] = system: MALME-3M melanoma
[17] = system: UACC-257 melanoma
[18] = system: PC-3 prostate
[19] = system: M14 melanoma
[20] = system: IGROV1 ovarian
[21] = system: HCC-2998 colon
[22] = system: SR leukemia
[23] = system: HOP-92 NSCLC
[24] = system: MDA-MB-435
[25] = system: EKVX NSCLC
[26] = system: CAKI-1 renal
[27] = system: SNB-75 CNS
[28] = system: NCI/ADR-RES ovarian
[29] = system: HCT-116 colon
[30] = system: UO-31 renal
[31] = system: OVCAR-5 ovarian
[32] = system: BT-549 breast
[33] = system: A549 NSCLC
[34] = system: COLO 205 colon
[35] = system: U251 CNS
[36] = system: ACHN renal
[37] = system: TK-10 renal
[38] = system: SF-295 CNS
[39] = system: MDA-MB-231 breast
[40] = system: NCI-H460 lung
[41] = system: HCT-15 colon
[42] = system: SF-539 CNS
[43] = system: NCI-H23 lung
[44] = system: SK-MEL-28 melanoma
[45] = system: MCF7 breast
[46] = system: RPMI-8226 leukemia
[47] = system: DU-145 prostate
[48] = system: SK-MEL-5 melanoma
[49] = system: A498 renal
[50] = system: KM12 colon
[51] = system: HT29 colon
[52] = system: SF-268 CNS
[53] = system: OVCAR-8 ovarian
[54] = system: HOP-62 NSCLC
[55] = system: NCI-H522 lung
[56] = system: RXF 393 renal

Measured: TGI

C[N+]1(Cc2ccc(Cl)c(Cl)c2)CCCC1C1CCCN(Cc2ccc(Cl)c(Cl)c2)C1 (stereo unspecified)
> 100 µM: all assays above
